The results in this text go back to article PMC3909880 (Nature communications, 2013).

The test deals with M. tuberculosis IAR2 mutant (mmpL3 S288T). It counts as cell-based, Mycobacterium tuberculosis.
`NCC[C@H](O)C(=O)N[C@@H]1C[C@H](N)[C@@H](O[C@H]2O[C@H](CN)[C@@H](O)[C@H](O)[C@H]2O)[C@H](O)[C@H]1O[C@H]1O[C@H](CO)[C@@H](O)[C@H](N)[C@H]1O` [Amikacin]: the “MIC for IAR2” value is 1 mg/L.
On the same count and under the same terms, the same measure for `CC[C@@H](CO)NCCN[C@@H](CC)CO` [Ethambutol]: 1 mg/L.
Turning to `NNC(=O)c1ccncc1` [Isoniazid], the “MIC for IAR2” value was found to be 0.04 mg/L.
As for `NC[C@H]1O[C@H](O[C@H]2[C@H](O)[C@@H](O[C@H]3O[C@H](CO)[C@@H](O)[C@H](N)[C@H]3O)[C@H](N)C[C@@H]2N)[C@H](O)[C@@H](O)[C@@H]1O` [Kanamycin], the “MIC for IAR2” value is 2 mg/L.
For `C[C@H]1COc2c(N3CCN(C)CC3)c(F)cc3c(=O)c(C(=O)O)cn1c23` [Levofloxacin], the “MIC for IAR2” value stood at 0.25 mg/L.
Take `CO[C@H]1/C=C/O[C@@]2(C)Oc3c(C)c(O)c4c(O)c(c(/C=N/N5CCN(C)CC5)c(O)c4c3C2=O)NC(=O)/C(C)=C\C=C\[C@H](C)[C@H](O)[C@@H](C)[C@@H](O)[C@@H](C)[C@H](OC(C)=O)[C@@H]1C` [Rifampin]: the “Fold change in MIC for IAR2” value turned out to be 0.25 and the “MIC for IAR2” value was 0.03125 mg/L.
`CC(C)=CCC/C(C)=C/CNCCNC1C2CC3CC(C2)CC1C3` (stereo not shown) [SQ109]: the “Fold change in MIC for IAR2” value was found to be 16 and the “MIC for IAR2” value amounted to 4 mg/L.
Capreomycin: the “MIC for IAR2” value is 1 mg/L.
